Measured values as given in patent US20080033053A1, “Cross-Reference To Related Applications” (priority 2004, published 2008).

Assays:
[1] = humans, cited from earlier work
[2] = tested on: patients with Huntington's disease; conditions: eight patients with Huntington's disease, open-label; cited from earlier work
[3] = by glomerular filtration and renal tubular secretion; cited from earlier work
[4] = tested on: human peripheral blood lymphocytes; conditions: in vitro; cited from earlier work
retinas from rats = assay: RNA expression profiling of retina, vehicle vs. (low dose & high dose) amantadine at steady state; assay type: in vivo, Sprague Dawley rats
mouse bone marrow = conditions: in vivo mouse bone marrow micronucleus test; cited from earlier work
rats = conditions: cited from earlier work
[5] = Ames Test; cited from earlier work
[6] = tested on: Chinese Hamster Ovary cells; conditions: cited from earlier work

## Cl.NC12CC3CC(CC(C3)C1)C2 [amantadine, 1-amino adamantane HCl]
[1]
  half-life, range: 10 to 25 h
[1]; mean ± spread
  half-life: 17 ± 4 h
[2]
  dyskinesias: significant reduction of dyskinesias
[3]
  excretion: primarily excreted unchanged in the urine
[4]
  chromosomal damage: no evidence of chromosomal damage
Retinas from rats; retinas following amantadine treatment, no fold change printed
  TRADD gene expression: down-regulated
Retinas from rats; retinas of amantadine-treated rats
  up-regulation of several crystallins: 4-21 fold
Mouse bone marrow
  chromosomal damage: no evidence of chromosomal damage
rats
  teratogenic dose: 50 mg/kg/day
[5]
  mutagenicity: non-mutagenic
[6]
  mutagenicity: non-mutagenic
